From patent US6617122B1, “Process for identifying modulators of ABC1 activity” (Xenon Genetics, Inc., priority 1999, dated 2003)

Experiments:
cholesterol efflux = settings: cited from earlier work
ABC1 [1] = settings: cited from earlier work
ABC1 [2] = molecular target: ABC1 (Homo sapiens, UniProt O95477); settings: cited from earlier work
ABC1 mRNA = ABC1 mRNA upon cholesterol loading; type: cell-based

ABC1 (Homo sapiens, UniProt O95477), sequence (O95477 whole entry): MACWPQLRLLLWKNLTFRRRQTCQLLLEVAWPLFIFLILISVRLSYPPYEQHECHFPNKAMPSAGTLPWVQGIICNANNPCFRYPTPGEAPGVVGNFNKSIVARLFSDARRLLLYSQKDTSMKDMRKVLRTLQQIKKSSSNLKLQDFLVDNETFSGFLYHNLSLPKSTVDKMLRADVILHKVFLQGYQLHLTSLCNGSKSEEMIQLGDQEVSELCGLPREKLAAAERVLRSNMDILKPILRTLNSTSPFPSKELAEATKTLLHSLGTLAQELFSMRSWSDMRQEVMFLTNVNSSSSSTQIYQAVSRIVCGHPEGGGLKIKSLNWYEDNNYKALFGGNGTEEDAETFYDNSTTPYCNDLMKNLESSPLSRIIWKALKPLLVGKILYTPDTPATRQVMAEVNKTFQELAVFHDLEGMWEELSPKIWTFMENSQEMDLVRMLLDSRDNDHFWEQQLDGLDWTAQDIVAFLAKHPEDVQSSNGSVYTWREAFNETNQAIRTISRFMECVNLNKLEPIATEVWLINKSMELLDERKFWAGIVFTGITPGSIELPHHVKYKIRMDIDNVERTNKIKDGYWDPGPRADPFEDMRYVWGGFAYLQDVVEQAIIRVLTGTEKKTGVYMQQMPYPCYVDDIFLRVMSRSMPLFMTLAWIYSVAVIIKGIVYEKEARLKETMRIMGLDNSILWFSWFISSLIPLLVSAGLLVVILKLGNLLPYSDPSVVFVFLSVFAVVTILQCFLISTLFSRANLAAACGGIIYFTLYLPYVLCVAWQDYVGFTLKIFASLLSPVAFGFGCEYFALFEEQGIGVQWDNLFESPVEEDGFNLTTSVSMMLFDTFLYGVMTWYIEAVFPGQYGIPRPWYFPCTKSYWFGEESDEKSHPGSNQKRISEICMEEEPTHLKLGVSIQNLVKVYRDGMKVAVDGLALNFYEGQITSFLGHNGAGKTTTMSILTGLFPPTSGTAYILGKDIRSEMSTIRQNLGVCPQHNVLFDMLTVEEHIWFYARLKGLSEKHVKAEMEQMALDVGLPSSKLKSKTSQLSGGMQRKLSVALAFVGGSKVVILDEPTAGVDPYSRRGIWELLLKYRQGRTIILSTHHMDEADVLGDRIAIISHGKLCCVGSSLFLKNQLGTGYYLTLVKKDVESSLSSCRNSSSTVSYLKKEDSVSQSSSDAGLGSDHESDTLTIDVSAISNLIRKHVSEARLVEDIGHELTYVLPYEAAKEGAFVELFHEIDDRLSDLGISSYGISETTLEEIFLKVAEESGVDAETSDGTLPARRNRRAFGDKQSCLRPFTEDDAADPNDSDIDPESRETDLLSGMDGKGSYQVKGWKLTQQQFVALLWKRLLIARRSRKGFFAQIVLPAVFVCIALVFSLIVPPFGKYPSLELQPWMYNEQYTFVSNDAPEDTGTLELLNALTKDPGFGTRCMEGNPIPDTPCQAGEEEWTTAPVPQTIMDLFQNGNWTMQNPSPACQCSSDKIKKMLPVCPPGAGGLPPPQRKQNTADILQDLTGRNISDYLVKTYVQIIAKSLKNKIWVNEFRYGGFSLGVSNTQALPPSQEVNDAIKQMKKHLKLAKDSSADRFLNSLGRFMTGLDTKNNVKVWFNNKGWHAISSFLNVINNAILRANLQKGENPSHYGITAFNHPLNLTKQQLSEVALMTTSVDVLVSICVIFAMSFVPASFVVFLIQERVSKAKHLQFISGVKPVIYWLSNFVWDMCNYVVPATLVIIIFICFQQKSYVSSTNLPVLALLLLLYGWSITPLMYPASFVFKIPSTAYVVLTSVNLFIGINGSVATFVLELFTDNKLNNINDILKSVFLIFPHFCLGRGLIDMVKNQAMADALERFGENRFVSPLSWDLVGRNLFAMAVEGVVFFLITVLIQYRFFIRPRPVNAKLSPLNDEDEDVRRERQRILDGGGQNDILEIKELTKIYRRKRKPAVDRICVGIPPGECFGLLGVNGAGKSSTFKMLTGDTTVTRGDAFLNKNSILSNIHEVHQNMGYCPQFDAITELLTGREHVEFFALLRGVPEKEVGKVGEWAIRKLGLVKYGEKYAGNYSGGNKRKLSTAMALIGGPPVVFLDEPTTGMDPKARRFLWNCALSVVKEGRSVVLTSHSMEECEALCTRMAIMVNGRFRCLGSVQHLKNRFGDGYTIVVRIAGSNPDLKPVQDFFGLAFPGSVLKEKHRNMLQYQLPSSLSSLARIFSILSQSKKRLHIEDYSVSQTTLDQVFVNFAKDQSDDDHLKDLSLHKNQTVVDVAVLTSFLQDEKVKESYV

SMILES | inhibition of ABC1 (ABC1 [1]) | upregulation of ABC1 expression or biological activity (ABC1 [2]) | further results
C[C@H]1CCC/C=C/[C@@H]2C[C@H](O)C[C@H]2[C@H](O)/C=C/C(=O)O1 [Brefeldin] | – | – | cholesterol efflux (cholesterol efflux): significantly inhibits cholesterol efflux
O=S(=O)(O)c1cc(N=C=S)ccc1C=Cc1ccc(N=C=S)cc1S(=O)(=O)O [DIDS] | inhibit | – | –
CC(C)Cn1c(=O)n(C)c(=O)c2[nH]cnc21 [IBMX1] | – | upregulate | –
CC(C)CCC[C@@H](C)[C@H]1CC[C@H]2[C@@H]3CC=C4C[C@@H](O)CC[C@]4(C)[C@H]3CC[C@]12C [cholesterol] | – | – | increase of ABC1 mRNA (ABC1 mRNA): approximately 8 fold
O=C(O)c1ccccc1Nc1ccccc1 [diphenylamine-2-carbonic acid] | inhibit | – | –
O=C(O)c1ccccc1Nc1cccc(C(F)(F)F)c1 [flufenamic acid] | inhibit | – | –
COc1ccc(Cl)cc1C(=O)NCCc1ccc(S(=O)(=O)NC(=O)NC2CCCCC2)cc1 [glibenclamide] | inhibit | – | –
C=C1[C@@H](O)[C@@H]2O[C@]3(CC[C@H](/C=C/[C@@H](C)[C@@H]4CC(C)=C[C@@]5(O[C@H](C[C@@](C)(O)C(=O)O)CC[C@H]5O)O4)O3)CC[C@H]2O[C@@H]1[C@@H](O)C[C@H](C)[C@H]1O[C@@]2(CCCCO2)CC[C@H]1C [okadaic acid] | – | upregulate | –
O=C1OC(c2ccc(O)c(S(=O)(=O)O)c2)(c2ccc(O)c(S(=O)(=O)O)c2)c2c(Br)c(Br)c(Br)c(Br)c21 [sulfobromophthalein] | inhibit | – | –
[O]=[V]([O-])([O-])[O-] [vanadate] | – | upregulate | –
